“Also recorded” adds a separate entry of the source.
Legend:
[1] = tested on: apoptotic Jurkat lymphocytes; assay: In vitro binding tests, apoptotic vs viable cells; conditions: for binding to apoptotic cells: apoptotic Jurkat lymphocytes
Protocol: In vitro binding tests. The PtdE-binding activity of ^99mTc-HYNIC-Duramycin was examined using binding assays in vitro. A good source of exposed PtdE was apoptotic Jurkat lymphocytes incubated with 5 μM final concentration of camptothecin at 37° C. in a humidified atmosphere with 5% CO2. Untreated control or treated cells were harvested by centrifugation at 800 g for 5 min and re-suspended at 2×10^6 per ml. Radiolabeled Duramycin or Duramycin^1 (inactivated Duramycin) was added to each ml of cells at a final concentration of 100 nM, and the binding was allowed to proceed for 5 min at room temperature. The mixture was then loaded onto a layer of Histopaque. After centrifugation at 800 g for 5 min, cell pellet was collected at the bottom of the tube below the Histopaque layer, whereas the media that contained the non-bound radioactivity will remain above Histopaque. The aqueous supernatant was removed by gentle aspiration. The tip of the tube that contains the pellet was cut off using a hot scalpel. Bound radioactivity was determined by direct gamma counting at an energy window of 140±15 keV.

[2] = Competition assay with phospholipid liposomes on apoptotic cells; assay type: binding; conditions: for binding to apoptotic cells in the presence of PtdE-containing liposomes: increasing concentration of PtdC/PtdE liposomes
Protocol: Preparation of liposomes. Liposomes with the following chemical compositions were made: PtdC (100%), PtdC/PtdE (50/50, w/w), PtdC/PtdS (50/50, w/w), PtdC/PtdG (50/50, w/w). Solid phospholipids were weighed to contain 2 mg for each type of lipids in separate glass test tubes (10×140 mm). One ml of chloroform was used to completely dissolve the phospholipid in each tube. The chloroform was evaporated under a stream of nitrogen where the dried phospholipids formed a thin film of residue on the test tube wall. The samples were thoroughly dried under vacuum overnight. The next morning each sample was re-suspended in 2 ml of HEPES buffer (15 mM HEPES, 120 mM NaCl, pH 7.4) at 45° C. Each suspension was sonicated for 2-5 min at 15 sec each cycle until the mixture turned into an opaque appearance, which indicated the formation of multi-laminar liposomes. The samples were kept on ice until use.
Competition assay. The retention of the binding activity was determined using a competition assay in the presence of PtdE-containing liposomes. PtdC/PtdE liposomes was prepared as described herein. Binding assay was carried out in triplicate in the presence of increasing amount of PtdC/PtdE liposomes, from 1 nM to 10 μM final concentration in 4-fold increments. The radioactivity bound to the cell pellet was determined by gamma counting as described in the precious paragraph. The assay was repeated using liposomes containing other species of closely related phospholipids, including PtdC, PtdG, and PtdS.

[3] = Biodistribution studies in healthy rats; assay type: in vivo, rat
Protocol: Biodistribution studies. […] Dynamic whole-body biodistribution profile was acquired using an in-house gamma camera (GE XRT). The anesthetized animal was continuously imaged at an energy window of 140±15 keV, field of view 22.5×22.5 cm, matrix 128×128, at 1 min per image for up to 60 min post-injection.
For quantitative biodistribution, at each designated time point after intravenous injection of radiolabeled Duramycin, including 0, 1, 5, 15, 30, and 60 min, a group of 4 rats were sacrificed. Various tissues were dissected, rinsed in saline, weighed, and the level of radioactivity was determined using direct gamma counting (140±15 keV).

acute cardiac cell death = assay: In vivo imaging of acute cardiac cell death, rat model of ischemia and reperfusion
area-at-risk = assay: Spatial and temporal uptake in the area-at-risk after myocardial ischemia and reperfusion; assay type: in vivo, rat
AMI = assay: Window of detection for AMI, planar imaging and autoradiography; assay type: in vivo, rat
breast tumor = assay: Imaging in chemical-induced breast cancer model with doxorubicin treatment; assay type: in vivo, rat
Excerpt: In an experimental example using a chemical-induced breast cancer model in rats, breast tumors were allowed to grow to palpable size prior to doxorubicin treatment (see arrow, FIG. 9B).

[4] = tested on: heart transplant rejection; assay: Imaging in rat model of heart transplant rejection; assay type: in vivo; conditions: days four and six post transplantation
Protocol: In another experimental example, using a rat model of heart transplant rejection, rats were given heart allograft transplants, and other rats were given heart isograft transplants. Four and six days after heart tissue transplantation, the rats were injected with 99mTc-Duramycin and subsequently imaged.

stroke = conditions: in vivo
[5] = tested on: radiation-induced cell death; assay: Imaging of radiation-induced cell death after whole-body irradiation; assay type: in vivo, rat; conditions: rats, 15 Gy whole-body ionizing irradiation
Excerpt: In an experimental example, 99mTc-Duramycin imaging was used to detect the distribution of radiation-prone tissues after exposure to high-dose ionizing irradiation. […] Control rats were not exposed to ionizing radiation. […] The most radiation-susceptible tissues include the thymus (arrow) and bone marrows (arrow heads and bottom insets).

rat serum albumin = rat serum albumin (Rattus norvegicus, UniProt P02770); conditions: RadioHPLC
rat serum albumin, sequence (P02770 25-608): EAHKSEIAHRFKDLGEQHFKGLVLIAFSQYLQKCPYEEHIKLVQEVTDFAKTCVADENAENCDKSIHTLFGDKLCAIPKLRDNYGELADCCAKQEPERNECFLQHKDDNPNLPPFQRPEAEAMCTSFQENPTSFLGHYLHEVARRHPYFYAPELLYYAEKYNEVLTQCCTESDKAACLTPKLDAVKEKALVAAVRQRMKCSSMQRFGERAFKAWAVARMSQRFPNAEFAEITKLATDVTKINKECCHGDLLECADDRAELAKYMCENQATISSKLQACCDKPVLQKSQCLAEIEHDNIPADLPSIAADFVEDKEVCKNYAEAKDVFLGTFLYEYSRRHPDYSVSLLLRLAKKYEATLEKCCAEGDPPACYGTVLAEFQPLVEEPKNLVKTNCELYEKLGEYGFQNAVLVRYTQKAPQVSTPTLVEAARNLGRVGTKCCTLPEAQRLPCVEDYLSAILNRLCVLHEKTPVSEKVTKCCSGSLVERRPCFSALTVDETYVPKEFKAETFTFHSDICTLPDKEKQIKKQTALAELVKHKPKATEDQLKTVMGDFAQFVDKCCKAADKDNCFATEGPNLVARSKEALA

[6] = listed as 99mTc-HYNIC-Duramycin^1
[7] = dissected heart tissues, 60 min after injection

CC(C)=NNc1ccc(C(=O)NCCCC[C@@H]2NC(=O)[C@@H](N)CS[C@@H](C)[C@H]3NC(=O)[C@H](CC(N)=O)NC(=O)CNC(=O)[C@H]([C@@H](O)C(=O)O)NC(=O)[C@@H]4CSC[C@@H](NC(=O)[C@H](CCC(N)=O)NC2=O)C(=O)N[C@H]2CS[C@@H](C)[C@@H](NC(=O)[C@H](Cc5ccccc5)NC(=O)[C@@H]5CCCN5C(=O)CNC(=O)[C@H](Cc5ccccc5)NC(=O)[C@H](CNCCCC[C@@H](C(=O)O)NC3=O)NC2=O)C(=O)N[C@@H](Cc2ccccc2)C(=O)N[C@@H](C(C)C)C(=O)N4)cn1 [^99mTc-HYNIC-Duramycin, metal not drawn]
binding to apoptotic cells [1]: dramatically enhanced | binding to apoptotic cells [1, 6]: only at background levels | radioactivity uptake in viable cells ([1]; viable Jurkat lymphocytes as control): remained near background | binding to apoptotic cells in the presence of liposomes of other phospholipids ([2]; PtdC, PtdG or PtdS liposomes): unable to competitively reduce | binding to apoptotic cells in the presence of PtdE-containing liposomes [2]: competitively abolished; also recorded: exclusively and competitively diminished | binding to apoptotic cells in the presence of PtdE-containing liposomes [2, 6]: not competitively diminished | tissue uptake at 1 h ([3]; Sprague Dawley, rat, 2.3 nmole, total radioactivity, Bone, healthy rats, intravenous, 60 min post-injection (n=4)): 0.04 ± 0.01 %ID/g | tissue uptake at 1 h ([3]; Sprague Dawley, rat, 2.3 nmole, total radioactivity, Brain, healthy rats, intravenous, 60 min post-injection (n=4)): 0.01 ± 0.01 %ID/g | tissue uptake at 1 h ([3]; Sprague Dawley, rat, 2.3 nmole, total radioactivity, Colon, healthy rats, intravenous, 60 min post-injection (n=4)): 0.11 ± 0.01 %ID/g | tissue uptake at 1 h ([3]; Sprague Dawley, rat, 2.3 nmole, total radioactivity, Fat, healthy rats, intravenous, 60 min post-injection (n=4)): 0.06 ± 0.06 %ID/g | tissue uptake at 1 h ([3]; Sprague Dawley, rat, 2.3 nmole, total radioactivity, Heart, healthy rats, intravenous, 60 min post-injection (n=4)): 0.21 ± 0.16 %ID/g | tissue uptake at 1 h ([3]; Sprague Dawley, rat, 2.3 nmole, total radioactivity, Kidney, healthy rats, intravenous, 60 min post-injection (n=4)): 2.32 ± 0.48 %ID/g | tissue uptake at 1 h ([3]; Sprague Dawley, rat, 2.3 nmole, total radioactivity, Liver, healthy rats, intravenous, 60 min post-injection (n=4)): 0.28 ± 0.01 %ID/g | tissue uptake at 1 h ([3]; Sprague Dawley, rat, 2.3 nmole, total radioactivity, Lung, healthy rats, intravenous, 60 min post-injection (n=4)): 0.12 ± 0.05 %ID/g | tissue uptake at 1 h ([3]; Sprague Dawley, rat, 2.3 nmole, total radioactivity, Muscle, healthy rats, intravenous, 60 min post-injection (n=4)): 0.03 ± 0.01 %ID/g | tissue uptake at 1 h ([3]; Sprague Dawley, rat, 2.3 nmole, total radioactivity, Pancreas, healthy rats, intravenous, 60 min post-injection (n=4)): 0.05 ± 0.01 %ID/g | tissue uptake at 1 h ([3]; Sprague Dawley, rat, 2.3 nmole, total radioactivity, Skin, healthy rats, intravenous, 60 min post-injection (n=4)): 0.01 ± 0.01 %ID/g | tissue uptake at 1 h ([3]; Sprague Dawley, rat, 2.3 nmole, total radioactivity, Small intestine, healthy rats, intravenous, 60 min post-injection (n=4)): 0.37 ± 0.07 %ID/g | tissue uptake at 1 h ([3]; Sprague Dawley, rat, 2.3 nmole, total radioactivity, Spleen, healthy rats, intravenous, 60 min post-injection (n=4)): 0.1 ± 0.02 %ID/g | tissue uptake at 1 h ([3]; Sprague Dawley, rat, 2.3 nmole, total radioactivity, Stomach, healthy rats, intravenous, 60 min post-injection (n=4)): 0.11 ± 0.01 %ID/g | tissue uptake at 1 h ([3]; Sprague Dawley, rat, 2.3 nmole, total radioactivity, Thymus, healthy rats, intravenous, 60 min post-injection (n=4)): 0.06 ± 0.02 %ID/g | tissue uptake at 1 h ([3]; Sprague Dawley, rat, 2.3 nmole, total radioactivity, Thyroid, healthy rats, intravenous, 60 min post-injection (n=4)): 0.08 ± 0.03 %ID/g | excreta dose per gram or mL at 1 h ([3]; Sprague Dawley, rat, 2.3 nmole, total radioactivity, Urine, healthy rats, intravenous, 60 min post-injection (n=4), read-out: Uptake): 22.1 ± 13.2 %ID/g | tissue uptake at 1 h ([3]; Sprague Dawley, rat, whole blood, 2.3 nmole, total radioactivity, Blood, healthy rats, intravenous, 60 min post-injection (n=4)): 0.33 ± 0.11 %ID/g | signs of toxicity or other adverse effects ([3]; at the current dosage tested, rats): no signs of toxicity or other adverse effects were observed | brain uptake ([3]; healthy rats): low | route of clearance ([3]; healthy rats): renal excretion is the predominant route of clearance | uptake in the hepatic and gastrointestinal regions ([3]; healthy rats): low uptake; also recorded: very low | average radioactivity at the infarct site (acute cardiac cell death; at 1 hr post-injection): above 4.0 % ID/g | infarct-to-lung ratio (acute cardiac cell death; at 2 hr after injection (n=3)): 4.8±0.4 | infarct-to-muscle ratio (acute cardiac cell death; at 2 hr after injection (n=3)): 12.2±1.3 | time after injection at which focal uptake was seen at the infarct (acute cardiac cell death; dynamic images, as early as): 10 min | average radioactivity at the infarct site (acute cardiac cell death; rat, in vivo): less than 1.0 % ID/g | retention / washout of radioactivity in the infarct (acute cardiac cell death; rat, in vivo): accompanied with a washout | time uptake in infarct tissues remained persistent without significant washout (area-at-risk; after injection): at least 3 hours | time to approach plateau of uptake (area-at-risk; area-at-risk, after injection): ≤ 10 min | tracer uptake in the ischemic-non-infarct myocardium (area-at-risk; at 180 min): 2.1±0.3 % ID | average infarct-to-normal ratio (area-at-risk; [7]): 31.9 | average ischemic-to-normal ratio (area-at-risk; [7]): 11.1 | tracer uptake in the ischemic-non-infarct myocardium (area-at-risk; minimum at 60 min): 1.6±0.6 % ID/g | tracer uptake in the ischemic-non-infarct myocardium (area-at-risk; peak at around 10 min post-injection): 2.7±0.6 % ID/g | radioactivity uptake in the infarcted myocardium (area-at-risk; plateau by 10 min after injection): 4.3±0.7 % ID/g | level (plateau) of uptake in the area-at-risk (area-at-risk; rat myocardial ischemia and reperfusion): ~4 % ID/g | presence of radioactivity in the infarcted tissue reduced (inactivated tracer) (area-at-risk; rat, in vivo): ~60% | time of maximum radioactivity in the infarcted tissue (area-at-risk; rat, in vivo): about 30 min | radioactivity uptake in the normal myocardium (area-at-risk; reflecting residual blood pool signal): low | radioactivity uptake in the infarcted myocardium (area-at-risk; within 3 min after injection): 1.8±0.4 % ID/g | decline of signal-to-background ratio in autoradiographs (AMI; at 24 hr compared with 2 hr post infarction): 32% | decline of signal-to-background ratio in autoradiographs (AMI; at 48 hr compared with 2 hr post infarction): 43% | uptake in treated breast tumor (breast tumor; after a single cycle of doxorubicin): elevated | cardiac uptake after doxorubicin (breast tumor; rat, in vivo): also elevated | uptake in heart allografts in contrast to isografts [4]: Markedly elevated | uptake in brain, rat stroke model (stroke): Focal uptake of radioactivity is colocalized with regions of stroke | detection of radiation-susceptible tissues [5]: Tissues susceptible to radiation-induced cell death were detected | complex formation between the tracer and albumin (rat serum albumin): did not result in any complex formation

Source: patent publication US8778303B2, “99mTc-labeled 19 amino acid containing peptide for use as phosphatidylethanolamine binding molecular probe and radiopharmaceutical” (The Medical College of Wisconsin, Inc., priority 2008, dated 2014)
